Test results as given in the supplement of paper PMC11061612.

Tests used:
Assay in all cases: combination Emax (second highest fraction inhibited in the dose matrix, 72 h); higher = more inhibition; extreme values may be limits of the assay
[1] = test system: COR-L279 (Small Cell Lung Carcinoma)
Method in brief: (§1)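 Cell lines grown in DMEM/F12 or RPMI with 10% FBS were plated in 1536-well plates and held 24 hours at 37°C, 5% CO2 before 72 hours of exposure to two-drug dose matrices, with DMSO typically at 0.2%. CellTiter-Glo 2.0 luminescence gave viability, which was converted to inhibition. Vehicle wells were set to 0 and blank wells to 1. Combination Emax is the second-highest inhibition in the matrix, and Bliss excess is the observed combination effect minus the expected EA + EB − EA·EB, where EA and EB are the single-agent effects.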

SJSA-1 (Osteosarcoma) = test system: SJSA-1 (Osteosarcoma)
Method in brief: as §1

[2] = test system: MOG-G-CCM (Low Grade Glioma)
Method in brief: as §1

[3] = test system: 8505C (Thyroid Gland Carcinoma)
Method in brief: as §1

NCI-H2731 (Mesothelioma) = test system: NCI-H2731 (Mesothelioma)
Method in brief: as §1

G-361 (Melanoma) = test system: G-361 (Melanoma)
Method in brief: as §1

[4] = test system: NCI-H3122 (Lung Adenocarcinoma)
Method in brief: as §1

[5] = test system: IM-95 (Gastric Carcinoma)
Method in brief: as §1

[6] = test system: NCI-H661 (Non-Small Cell Lung Carcinoma)
Method in brief: as §1

[7] = test system: SUP-B15 (B-Lymphoblastic Leukemia)
Method in brief: as §1

[8] = test system: KU812 (Chronic Myelogenous Leukemia)
Method in brief: as §1

[9] = test system: NCI-H929 (Plasma Cell Myeloma)
Method in brief: as §1

[10] = test system: MOLM-13 (Acute Myeloid Leukemia)
Method in brief: as §1

[11] = test system: RPMI-8226 (Plasma Cell Myeloma)
Method in brief: as §1

[12] = test system: ESO51 (Esophageal Adenocarcinoma)
Method in brief: as §1

[13] = test system: KYSE-270 (Esophageal Squamous Cell Carcinoma)
Method in brief: as §1

[14] = test system: MN-60 (B-Lymphoblastic Leukemia)
Method in brief: as §1

[15] = test system: KP-3 (Pancreatic Carcinoma)
Method in brief: as §1

[16] = test system: SK-GT-2 (Gastric Carcinoma)
Method in brief: as §1

[17] = test system: KMS-12-BM (Plasma Cell Myeloma)
Method in brief: as §1

| Structure (SMILES) | combination Emax [1] | combination Emax (SJSA-1 (Osteosarcoma)) | combination Emax [2] | combination Emax [3] | combination Emax (NCI-H2731 (Mesothelioma)) | combination Emax (G-361 (Melanoma)) | combination Emax [4] | combination Emax [5] | combination Emax [6] | combination Emax [7] | combination Emax [8] | combination Emax [9] | combination Emax [10] | combination Emax [11] | combination Emax [12] | combination Emax [13] | combination Emax [14] | combination Emax [15] | combination Emax [16] | combination Emax [17] |
| --- | --- | --- | --- | --- | --- | --- | --- | --- | --- | --- | --- | --- | --- | --- | --- | --- | --- | --- | --- | --- |
| COc1cc2ncnc(Nc3ccc(F)c(Cl)c3)c2cc1OCCCN1CCOCC1 [Gefitinib] + CC(C)n1c(=O)n(C)c2cnc3cc(F)c(-c4ccc(OCCCN5CCCCC5)nc4)cc3c21 [AZD1390] (first compound max 10 µM, 7x7, partner max 0.3 µM) | 0.395 | 0.0992 | 0.137 | 0.0956 | 0.0304 | 0.812 | 0.0961 | 0.171 | 0.0361 | 0.0538 | 0.425 | 0.187 | 0.776 | 0.0829 | 0.188 | 0.435 | 0.0314 | 0.0907 | 0.768 | 0.308 |
| COc1cc2c(cc1OCCCCCOc1cc3c(cc1OC)C(=O)N1C=C(C)C[C@H]1C=N3)N=C[C@@H]1CC(C)=CN1C2=O [SG3199] + O=C(c1cc(Cc2n[nH]c(=O)c3ccccc23)ccc1F)N1CCN(C(=O)C2CC2)CC1 [Olaparib] (first compound max 0.001 µM, 7x7, partner max 10 µM) | 0.878 | 0.159 | 0.0595 | 0.202 | 0.0512 | 0.0716 | 0.172 | 0.0954 | 0.133 | 0.921 | 0.192 | 0.192 | 0.554 | 0.165 | 0.138 | 0.228 | 0.079 | 0.027 | 0.12 | 0.136 |
| NC1(C(=O)N[C@@H](CCO)c2ccc(Cl)cc2)CCN(c2ncnc3[nH]ccc23)CC1 [Capivasertib] + CC(C)n1c(=O)n(C)c2cnc3cc(F)c(-c4ccc(OCCCN5CCCCC5)nc4)cc3c21 [AZD1390] (first compound max 10 µM, 7x7, partner max 0.3 µM) | 0.602 | 0.406 | 0.485 | 0.195 | 0.265 | 0.282 | 0.509 | 0.333 | 0.245 | 0.398 | 0.48 | 1 | 0.739 | 0.135 | 0.246 | 0.415 | 0.44 | 0.203 | 0.338 | 0.415 |
| CC(=O)c1c(C)c2cnc(Nc3ccc(N4CCNCC4)cn3)nc2n(C2CCCC2)c1=O [Palbociclib] + Cc1c2c(nn1C)CSCc1cc(n(C)n1)CSc1cc(c3ccccc3c1)OCCCc1c(C(=O)O)n(C)c3c-2c(Cl)ccc13 [AZD5991] (first compound max 10 µM, 7x7, partner max 1 µM) | 0.627 | 0.351 | 0.169 | 0.245 | 0.214 | 0.743 | 0.605 | 0.33 | 0.631 | 0.986 | 0.834 | 1 | 1 | 0.939 | 0.218 | 0.568 | 0.443 | 0.221 | 0.168 | 1 |
| CCN(CCO)CCCOc1ccc2c(Nc3cc(CC(=O)Nc4cccc(F)c4)[nH]n3)ncnc2c1 [AZD2811] + C=CCn1c(=O)c2cnc(Nc3ccc(N4CCN(C)CC4)cc3)nc2n1-c1cccc(C(C)(C)O)n1 [AZD1775] (first compound max 1 µM, partner max 1 µM) | 0.662 | 0.289 | 0.377 | 0.188 | 0.382 | 0.477 | 0.627 | 0.475 | 0.543 | 0.966 | 0.725 | 0.323 | 1 | 0.562 | 0.627 | 0.63 | 0.291 | 0.209 | 0.769 | 0.944 |
| COc1nnc2ccc(N3CCC(c4ccc(OCCN5CCN(C)C(=O)[C@H]5C)cc4)CC3)nn12 [AZD5153] + CN(CC[C@H](CSC1=CC=CC=C1)NC2=C(C=C(C=C2)S(=O)(=O)NC(=O)C3=CC=C(C=C3)N4CCC(CC4)[C@H](C5=CC=CC=C5C6=CC=C(C=C6)Cl)O)S(=O)(=O)C(F)(F)F)CCO [AZD4320] (first compound max 1 µM, 7x7, partner max 1 µM) |  |  |  | 0.441 |  | 0.67 |  | 0.548 | 0.272 | 1 |  |  | 1 | 0.996 | 0.666 |  |  |  | 0.346 | 1 |
| Cc1c2c(nn1C)CSCc1cc(n(C)n1)CSc1cc(c3ccccc3c1)OCCCc1c(C(=O)O)n(C)c3c-2c(Cl)ccc13 [AZD5991] + Cn1cnc2c(F)c(Nc3ccc(Br)cc3Cl)c(C(=O)NOCCO)cc21 [Selumetinib] (first compound max 1 µM, 7x7, partner max 3 µM) | 0.18 | 0.457 | 0.195 | 0.42 | 0.151 | 0.992 | 0.881 | 0.957 | 0.462 | 1 | 0.949 | 1 | 1 | 0.96 | 0.361 | 0.76 | 0.323 |  | 0.154 | 1 |
| CS(=O)(=O)CCNCc1ccc(-c2ccc3ncnc(Nc4ccc(OCc5cccc(F)c5)c(Cl)c4)c3c2)o1 [Lapatinib] + NC1(c2ccc(-c3nc4ccn5c(=O)[nH]nc5c4cc3-c3ccccc3)cc2)CCC1 [MK-2206] (first compound max 10 µM, 7x7, partner max 10 µM) | 0.978 | 0.897 | 0.523 |  | 0.894 |  | 0.653 | 0.509 |  |  | 0.917 | 1 |  |  |  | 0.913 | 0.904 | 0.205 |  |  |
| Cc1c2c(nn1C)CSCc1cc(n(C)n1)CSc1cc(c3ccccc3c1)OCCCc1c(C(=O)O)n(C)c3c-2c(Cl)ccc13 [AZD5991] + CN(C)CCCOc1ccc(-c2ccc3ncc4c(c3c2)n(C2CCOCC2)c(=O)n4C)cn1 [AZD0156] (first compound max 1 µM, 7x7, partner max 1 µM) | 0.496 | 0.322 | 0.249 | 0.609 | 0.193 | 0.956 | 0.405 | 0.824 | 0.505 | 1 | 0.828 | 1 | 1 | 0.963 | 0.205 | 0.542 | 0.177 |  | 0.182 | 1 |
| C=CCn1c(=O)c2cnc(Nc3ccc(N4CCN(C)CC4)cc3)nc2n1-c1cccc(C(C)(C)O)n1 [AZD1775] + C[C@@H]1COCCN1C2=NC(=NC(=C2)C3(CC3)[S@](=N)(=O)C)C4=C5C=CNC5=NC=C4 [AZD6738] (first compound max 1 µM, partner max 10 µM) | 0.675 | 0.393 | 0.682 |  | 0.464 | 0.676 | 0.872 | 0.761 | 0.689 | 0.914 | 0.849 | 0.713 | 0.999 | 0.983 | 0.754 | 1 | 0.64 |  | 0.799 | 1 |
| C[C@@H]1COCCN1c1cc(C2([S@](C)(=N)=O)CC2)nc(-c2ccnc3[nH]ccc23)n1 [AZD6738] + O=C(c1cc(Cc2n[nH]c(=O)c3ccccc23)ccc1F)N1CCN(C(=O)C2CC2)CC1 [Olaparib] (first compound max 10 µM, 7x7, partner max 10 µM) | 0.927 | 0.377 | 0.42 | 0.356 | 0.304 | 0.456 | 0.726 | 0.459 | 0.54 | 0.969 | 0.806 | 0.668 | 1 | 0.96 | 0.555 | 0.794 | 0.528 |  | 0.355 | 0.945 |
| C[C@@H](c1ccc2nccn2c1)n1nnc2ncc(-c3cnn(C)c3)nc21 [Savolitinib] + CN(CC[C@H](CSC1=CC=CC=C1)NC2=C(C=C(C=C2)S(=O)(=O)NC(=O)C3=CC=C(C=C3)N4CCC(CC4)[C@H](C5=CC=CC=C5C6=CC=C(C=C6)Cl)O)S(=O)(=O)C(F)(F)F)CCO [AZD4320] (first compound max 1 µM, 7x7, partner max 1 µM) |  |  |  | 0.201 |  | 0.198 |  | 0.675 | 0.189 | 1 |  |  | 1 | 0.944 | 0.95 |  |  |  | 0.136 | 1 |
| CCc1c2c(nc3ccc(O)cc13)-c1cc3c(c(=O)n1C2)COC(=O)[C@]3(O)CC [SN-38] + O=C(c1cc(Cc2n[nH]c(=O)c3ccccc23)ccc1F)N1CCN(C(=O)C2CC2)CC1 [Olaparib] (first compound max 0.3 µM, 7x7, partner max 10 µM) | 1 | 0.804 | 0.49 | 0.849 | 0.503 | 0.459 | 0.932 | 0.465 | 0.548 |  | 0.756 | 0.95 |  |  | 0.624 | 0.949 | 0.858 | 0.0787 |  |  |
